# Test results as given in patent publication US20030229002A1, “Use of agents that modulate PDE11A activity” (Pfizer Inc., priority 2002, published 2003).
# Structures can show the parent of a compound that is named as a salt. Where two headings read alike, the source gives them in different places.
# Columns and labels:
# [1] = target: T1, recombinant human PDE7 (Homo sapiens, UniProt Q13946); experiment: PDE7 inhibition, SPA-based assay; type: biochemical; details: Sf9 cells, geometric mean of at least 3 determinations
# T1 construct: made in house; host or cells: Sf9 insect cells (baculovirus)
# [2] = target: T2, PDE6 (Bos taurus, UniProt P11541+P23439); experiment: PDE6 inhibition, SPA-based cGMP hydrolysis assay; type: biochemical; details: PDE6 isolated from bovine retina; geometric mean of at least 3 determinations
# T2 construct: PDE6 was isolated from bovine retina; from tissue; host or cells: bovine retina
# T2 sequence (P11541 2-856 limits assumed): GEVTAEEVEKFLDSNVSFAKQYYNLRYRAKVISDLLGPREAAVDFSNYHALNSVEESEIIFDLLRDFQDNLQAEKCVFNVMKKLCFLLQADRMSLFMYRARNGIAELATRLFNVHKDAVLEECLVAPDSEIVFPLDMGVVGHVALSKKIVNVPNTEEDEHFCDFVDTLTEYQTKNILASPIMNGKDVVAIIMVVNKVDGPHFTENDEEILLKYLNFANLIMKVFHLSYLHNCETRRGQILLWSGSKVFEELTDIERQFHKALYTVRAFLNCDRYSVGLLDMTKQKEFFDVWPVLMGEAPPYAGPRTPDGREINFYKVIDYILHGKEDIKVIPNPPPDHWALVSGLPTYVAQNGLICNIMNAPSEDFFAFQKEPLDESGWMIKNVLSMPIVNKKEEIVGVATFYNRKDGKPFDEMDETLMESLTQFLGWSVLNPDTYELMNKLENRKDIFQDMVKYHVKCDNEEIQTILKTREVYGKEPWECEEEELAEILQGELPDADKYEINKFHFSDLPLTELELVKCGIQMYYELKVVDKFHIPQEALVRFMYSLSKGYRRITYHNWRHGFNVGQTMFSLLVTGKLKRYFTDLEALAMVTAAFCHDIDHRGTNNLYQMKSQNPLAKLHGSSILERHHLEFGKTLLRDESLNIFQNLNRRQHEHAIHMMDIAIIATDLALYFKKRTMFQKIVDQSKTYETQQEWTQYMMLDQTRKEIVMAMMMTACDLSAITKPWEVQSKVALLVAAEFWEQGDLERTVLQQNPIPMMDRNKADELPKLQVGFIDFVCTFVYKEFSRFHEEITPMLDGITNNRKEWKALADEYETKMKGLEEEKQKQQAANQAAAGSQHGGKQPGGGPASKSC
# T2 sequence (P23439 2-850 limits assumed): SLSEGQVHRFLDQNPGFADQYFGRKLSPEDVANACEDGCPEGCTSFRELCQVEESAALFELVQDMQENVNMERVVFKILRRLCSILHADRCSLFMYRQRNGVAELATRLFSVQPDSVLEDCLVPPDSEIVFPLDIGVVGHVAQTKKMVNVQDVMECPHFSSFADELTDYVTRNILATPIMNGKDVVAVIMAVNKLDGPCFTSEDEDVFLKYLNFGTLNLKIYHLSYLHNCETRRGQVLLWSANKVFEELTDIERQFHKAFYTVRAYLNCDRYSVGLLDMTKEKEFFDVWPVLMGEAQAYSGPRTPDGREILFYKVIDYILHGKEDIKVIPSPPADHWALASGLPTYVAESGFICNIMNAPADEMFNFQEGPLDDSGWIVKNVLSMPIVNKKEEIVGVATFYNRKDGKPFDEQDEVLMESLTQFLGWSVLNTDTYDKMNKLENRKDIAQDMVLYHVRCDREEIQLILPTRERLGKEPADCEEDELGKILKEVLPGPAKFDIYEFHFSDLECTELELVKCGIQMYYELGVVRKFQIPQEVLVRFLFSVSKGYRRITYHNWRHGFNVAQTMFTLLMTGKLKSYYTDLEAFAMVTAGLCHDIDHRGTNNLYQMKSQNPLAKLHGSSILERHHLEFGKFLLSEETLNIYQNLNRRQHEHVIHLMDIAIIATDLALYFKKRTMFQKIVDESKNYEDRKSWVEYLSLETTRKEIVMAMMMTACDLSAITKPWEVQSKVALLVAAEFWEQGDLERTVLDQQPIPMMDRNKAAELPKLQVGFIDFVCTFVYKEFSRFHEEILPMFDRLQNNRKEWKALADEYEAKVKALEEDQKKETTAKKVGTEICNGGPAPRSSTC
# [3] = target: T3, recombinant human PDE8 (Homo sapiens, UniProt O60658); experiment: PDE8 inhibition, SPA-based assay; type: biochemical; details: Sf9 cells, geometric mean of at least 3 determinations
# T3 construct: made in house; host or cells: Sf9 insect cells (baculovirus)
# [4] = target: T4, recombinant human PDE9 (Homo sapiens, UniProt O76083); experiment: PDE9 inhibition, SPA-based assay; type: biochemical; details: Sf9 cells, geometric mean of at least 3 determinations
# T4 construct: made in house; host or cells: Sf9 insect cells (baculovirus)
# [5] = target: recombinant human PDE10 (Homo sapiens, UniProt Q9Y233); experiment: PDE10 inhibition, SPA-based assay; type: biochemical; details: Sf9 cells, geometric mean of at least 3 determinations
# [6] = target: T5, recombinant human PDE11A (Homo sapiens, UniProt Q9HCR9); experiment: PDE11A inhibition, SPA-based cGMP hydrolysis assay; type: biochemical
# T5 construct: made in house; host or cells: Sf9 insect cells (baculovirus)
# [7] = target: T5, recombinant human PDE11A; details: substrate hydrolysis by recombinant human PDE11A; cited from earlier work
# [8] = system: epididymal spermatozoa; experiment: Capacitation analysis, chlorotetracycline (CTC) assay; type: cell-based, mouse; details: for number of capacitated sperm: FIG. 6, P<0.001; for % capacitated sperm: mean ± SEM
# Excerpt: Tissue sections were examined by immunohistochemistry (IHC) using a specific anti-PDE11 antibody. KO mice were generated using standard techniques, and PDE11 ablation confirmed by Southern blotting as well as reverse transcriptase polymerase chain reaction (RT-PCR) and IHC analysis of the testis. Fresh epididymal sperm were collected from adult mice and tested for capacitation (CP) using a chlorotetracycline assay before and after treatment with ATP—an inducer of CP.
# For capacitation analyses, fresh epididymal spermatozoa were collected from adult (16 week-old) mice into Tyrodes media, and tested in triplicate using a chlorotetracycline (CTC) assay (Fraser, L. R. & Herod, J. E. Expression of capacitation-dependent changes in chlortetracycline fluorescence patterns in mouse spermatozoa requires a suitable glycolysable substrate. J. Reprod. Fert., 1990; 88(2): 611-21) both ± pre-treatment with ATP—an inducer of capacitation—to determine the functional state of the spermatozoa.
# […] The extent of capacitation was measured using chlorotetracycline (CTC), 750 μM for 15 min at 37° C. The patterns of CTC fluorescence were observed under microscopy (Reference: Fraser L R et al., 1990, J. Reprod. Fert.—see above). Patterns reflected the functional state of spermatozoa, i.e. capacitated, uncapacitated and acrosome loss.
# Sequence of recombinant human PDE10 (Q9Y233 290-1055 limits assumed): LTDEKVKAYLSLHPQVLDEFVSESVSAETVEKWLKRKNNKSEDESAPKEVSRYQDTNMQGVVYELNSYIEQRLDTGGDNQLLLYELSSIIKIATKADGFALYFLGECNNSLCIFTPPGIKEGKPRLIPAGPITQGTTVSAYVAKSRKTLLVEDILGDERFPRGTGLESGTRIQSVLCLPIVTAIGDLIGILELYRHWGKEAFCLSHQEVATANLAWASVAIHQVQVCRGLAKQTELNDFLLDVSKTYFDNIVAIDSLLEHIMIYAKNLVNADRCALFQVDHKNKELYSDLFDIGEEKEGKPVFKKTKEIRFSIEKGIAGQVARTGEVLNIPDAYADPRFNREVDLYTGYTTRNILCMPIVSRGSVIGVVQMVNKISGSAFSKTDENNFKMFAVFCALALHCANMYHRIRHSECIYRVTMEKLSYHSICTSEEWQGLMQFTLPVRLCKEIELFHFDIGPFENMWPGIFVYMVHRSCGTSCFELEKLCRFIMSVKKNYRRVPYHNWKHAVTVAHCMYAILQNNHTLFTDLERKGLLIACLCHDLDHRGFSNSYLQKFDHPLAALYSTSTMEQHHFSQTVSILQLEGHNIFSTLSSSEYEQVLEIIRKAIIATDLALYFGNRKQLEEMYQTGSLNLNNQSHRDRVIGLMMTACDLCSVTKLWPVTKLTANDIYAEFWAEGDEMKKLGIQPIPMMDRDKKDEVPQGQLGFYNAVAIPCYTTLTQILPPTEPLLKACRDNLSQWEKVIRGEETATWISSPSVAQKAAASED
# T4 sequence (O76083 whole entry): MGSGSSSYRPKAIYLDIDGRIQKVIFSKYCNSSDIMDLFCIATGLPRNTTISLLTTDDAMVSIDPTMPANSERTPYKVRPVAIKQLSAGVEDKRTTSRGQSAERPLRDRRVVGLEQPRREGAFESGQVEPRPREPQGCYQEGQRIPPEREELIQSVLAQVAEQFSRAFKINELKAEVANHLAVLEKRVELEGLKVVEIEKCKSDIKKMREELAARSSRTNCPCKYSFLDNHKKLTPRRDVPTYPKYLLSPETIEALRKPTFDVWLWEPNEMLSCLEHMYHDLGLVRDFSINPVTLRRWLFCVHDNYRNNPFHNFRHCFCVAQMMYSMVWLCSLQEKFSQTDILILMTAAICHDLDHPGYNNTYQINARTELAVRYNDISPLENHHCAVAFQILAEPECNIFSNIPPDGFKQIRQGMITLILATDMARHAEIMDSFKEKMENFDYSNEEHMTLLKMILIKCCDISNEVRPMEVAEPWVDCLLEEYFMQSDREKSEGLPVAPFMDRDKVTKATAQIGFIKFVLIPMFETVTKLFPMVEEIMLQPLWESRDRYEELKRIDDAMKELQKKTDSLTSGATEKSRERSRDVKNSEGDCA
# T5 sequence (Q9HCR9 445-933): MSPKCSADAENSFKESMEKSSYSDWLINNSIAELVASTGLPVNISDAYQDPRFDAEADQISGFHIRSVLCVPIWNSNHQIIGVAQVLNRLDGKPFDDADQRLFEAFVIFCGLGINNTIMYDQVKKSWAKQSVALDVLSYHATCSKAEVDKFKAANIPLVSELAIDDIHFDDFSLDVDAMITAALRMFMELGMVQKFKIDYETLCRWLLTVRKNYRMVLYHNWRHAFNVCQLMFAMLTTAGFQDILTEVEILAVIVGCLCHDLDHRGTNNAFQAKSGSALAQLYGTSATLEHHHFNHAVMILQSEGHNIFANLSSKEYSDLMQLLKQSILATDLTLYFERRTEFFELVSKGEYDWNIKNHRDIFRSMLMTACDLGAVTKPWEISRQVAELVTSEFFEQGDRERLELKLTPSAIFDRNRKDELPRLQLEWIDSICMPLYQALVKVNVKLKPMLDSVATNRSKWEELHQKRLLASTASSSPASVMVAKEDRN
# T1 sequence (Q13946 whole entry): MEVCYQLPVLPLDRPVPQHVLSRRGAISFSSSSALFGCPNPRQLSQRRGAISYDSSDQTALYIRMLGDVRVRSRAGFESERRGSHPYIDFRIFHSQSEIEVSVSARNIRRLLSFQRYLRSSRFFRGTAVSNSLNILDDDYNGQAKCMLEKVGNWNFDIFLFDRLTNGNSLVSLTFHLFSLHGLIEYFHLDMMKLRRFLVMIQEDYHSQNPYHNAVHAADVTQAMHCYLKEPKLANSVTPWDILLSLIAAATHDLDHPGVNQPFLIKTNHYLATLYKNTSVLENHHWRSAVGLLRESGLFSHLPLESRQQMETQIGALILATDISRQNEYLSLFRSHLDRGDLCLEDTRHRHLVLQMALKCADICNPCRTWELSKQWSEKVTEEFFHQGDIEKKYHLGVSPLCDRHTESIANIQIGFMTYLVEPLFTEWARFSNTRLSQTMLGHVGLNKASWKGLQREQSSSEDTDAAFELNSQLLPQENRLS
# T3 sequence (O60658 whole entry): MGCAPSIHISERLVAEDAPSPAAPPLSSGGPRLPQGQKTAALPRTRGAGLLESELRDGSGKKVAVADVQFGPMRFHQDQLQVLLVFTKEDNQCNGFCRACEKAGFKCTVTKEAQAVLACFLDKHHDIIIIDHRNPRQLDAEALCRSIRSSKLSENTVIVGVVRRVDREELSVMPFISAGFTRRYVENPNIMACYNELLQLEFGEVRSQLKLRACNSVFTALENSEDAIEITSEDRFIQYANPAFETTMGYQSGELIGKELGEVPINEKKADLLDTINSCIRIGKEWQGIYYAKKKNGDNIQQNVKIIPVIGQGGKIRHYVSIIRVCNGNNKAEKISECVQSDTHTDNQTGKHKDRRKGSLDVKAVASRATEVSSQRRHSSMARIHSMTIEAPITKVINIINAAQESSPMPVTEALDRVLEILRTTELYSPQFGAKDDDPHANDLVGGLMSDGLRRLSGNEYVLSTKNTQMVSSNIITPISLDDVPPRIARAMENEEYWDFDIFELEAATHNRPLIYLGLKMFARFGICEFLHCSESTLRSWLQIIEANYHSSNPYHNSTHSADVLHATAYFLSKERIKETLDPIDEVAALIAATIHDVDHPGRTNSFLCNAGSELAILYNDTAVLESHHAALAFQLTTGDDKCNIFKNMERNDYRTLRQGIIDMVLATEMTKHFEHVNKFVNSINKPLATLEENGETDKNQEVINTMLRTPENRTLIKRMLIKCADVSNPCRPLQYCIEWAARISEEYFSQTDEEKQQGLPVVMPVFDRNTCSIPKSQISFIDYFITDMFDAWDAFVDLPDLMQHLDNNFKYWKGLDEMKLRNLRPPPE
Compound,IC50 [1] [µM],IC50 [2] [µM],IC50 [4] [µM],IC50 [5] [µM],IC50 [3] [µM],also measured
"O=C(O)C1CCN(c2nc(NCc3ccc4c(c3)OCO4)c3cc(Cl)ccc3n2)CC1 [Compound E4021, 1-[4-[(1,3-benzodioxol-5-ylmethyl)amino]-6-chloro-2-quinazolinyl]-4-piperidinecarboxylic acid, monohydrochloride]",> 100,0.0047,> 100,> 100,> 100,IC50 [6]: 0.572 µM
"Nc1nc2c(ncn2[C@@H]2O[C@@H]3COP(=O)(O)O[C@H]3[C@H]2O)c(=O)[nH]1 [cGMP, cyclic guanine 3′,5′-monophosphate]",–,–,–,–,–,Km [7]: 0.52 µM
"Nc1ncnc2c1ncn2[C@@H]1O[C@H](COP(=O)(O)OP(=O)(O)OP(=O)(O)O)[C@@H](O)[C@H]1O [ATP, adenosine-5′-triphosphate]",–,–,–,–,–,"number of capacitated sperm ([8]; ATP 1.0 mM, spermatozoa from PDE11 KO mice only): significantly increased; number of capacitated sperm ([8]; ATP 2.5 mM, all murine spermatozoa samples, 1 hr incubation): significantly increased; number of capacitated murine spermatozoa ([8]; PDE11 knockout and wild type samples, after 1 hr incubation): significantly increased; % capacitated sperm ([8]; Table 2, PDE11 KO (−/−) mice, pre-treatment +1mM ATP, n = 3 animals): 45.9 ± 7.0%; % capacitated sperm ([8]; Table 2, PDE11 KO (−/−) mice, pre-treatment +2.5 mM ATP, n = 3 animals): 73.9 ± 5.6%; % capacitated sperm ([8]; Table 2, Wild-type (+/+) mice, pre-treatment +1mM ATP, n = 3 animals): 41.4 ± 8.2%; % capacitated sperm ([8]; Table 2, Wild-type (+/+) mice, pre-treatment +2.5 mM ATP, n = 3 animals): 73.5 ± 5.1%; % capacitated sperm ([8]; Table 3, PDE11 KO (−/−) mice, pre-treatment +1 mM ATP, n = 4): 48.4 ± 4.0%; % capacitated sperm ([8]; Table 3, PDE11 KO (−/−) mice, pre-treatment +2.5 mM ATP, n = 4): 77.6 ± 3.8%; % capacitated sperm ([8]; Table 3, Wild-type (+/+) mice, pre-treatment +1 mM ATP, n = 4): 47.1 ± 5.1%; % capacitated sperm ([8]; Table 3, Wild-type (+/+) mice, pre-treatment +2.5 mM ATP, n = 4): 78.4 ± 3.3%"

# Further lines, with some results ahead:
IC50 [1] [µM],IC50 [2] [µM],IC50 [4] [µM],IC50 [5] [µM],Compound,IC50 [3] [µM],also measured
19.7,–,–,–,"CCCc1nn(C)c2c(=O)[nH]c(-c3cc(S(=O)(=O)N4CCN(C)CC4)ccc3OCC)nc12 [Sildenafil, 5-[2-ethoxy-5-(4-methyl-1-piperazinylsulphonyl)phenyl]-1-methyl-3-n-propyl-1,6-dihydro-7H-pyrazolo[4,3-d]pyrimidin-7-one]",–,–
> 100,1.5,> 100,> 100,"CN1CC(=O)N2[C@H](c3ccc4c(c3)OCO4)c3[nH]c4ccccc4c3C[C@@H]2C1=O [IC351, (6R,12aR)-6-(1,3-benzodioxol-5-yl)-2,3,6,7,12,12a-hexahydro-2-methyl-pyrazino[1′,2′: 1,6]pyrido[3,4-b]indole-1,4-dione]",> 100,–
–,1,> 100,> 100,"Clc1ccc2nc(-n3ccnc3)nc(NCc3ccccc3)c2c1 [UK-235,187, 6-Chloro-2-(1H-imidazol-1-yl)-N-(phenylmethyl)-,4-quinazolinamine, dihydrochloride]",–,"IC50 ([6]; recombinant human, Sf9 cells, 69 nM cGMP, geometric mean of at least 3 determinations, read-out: IC50 PDE11A): 0.0466 µM"
